Measured values: ChEMBL document CHEMBL1817642, “Stereoselective synthesis and antimicrobial activity of steroidal C-20 tertiary alcohols with thiazole/pyridine side chain” (2011)
Converted amounts (≈) assume the structure as drawn.

Tests used:
Assay type in all cases: functional
[1] = test system: Benjaminiella poitrasii; experiment: Antifungal activity against Benjaminiella poitrasii isolate NCL3 after 24 hrs by M38-P broth dilution method; conditions: isolate NCL3, 24 h
[2] = test system: Staphylococcus aureus; experiment: Antibacterial activity against Staphylococcus aureus NCIM 2122 after 24 hrs by NCCLS method; conditions: NCIM 2122, 24 h
[3] = test system: Candida albicans; experiment: Antifungal activity against Candida albicans isolate NCL1 after 48 hrs by broth dilution method; conditions: isolate NCL1, 48 h
[4] = test system: Escherichia coli; experiment: Antibacterial activity against Escherichia coli NCIM 2574 after 24 hrs by NCCLS method; conditions: NCIM 2574, 24 h
[5] = test system: Fusarium oxysporum; experiment: Antifungal activity against Fusarium oxysporum isolate NCL5 after 48 hrs by broth dilution method; conditions: isolate NCL5, 48 h
[6] = test system: Cryptococcus neoformans; experiment: Antifungal activity against Cryptococcus neoformans isolate NCL2 after 72 hrs by broth dilution method; conditions: isolate NCL2, 72 h
[7] = test system: Yarrowia lipolytica; experiment: Antifungal activity against Yarrowia lipolytica isolate NCL4 after 24 hrs by broth dilution method; conditions: isolate NCL4, 24 h

| SMILES | MIC90 [1] | MIC90 [2] | MIC90 [3] | MIC90 [4] | MIC90 [5] | MIC90 [6] | MIC90 [7] |
| --- | --- | --- | --- | --- | --- | --- | --- |
| CC(C)(C)[Si](C)(C)O[C@H]1CC[C@@]2(C)C(=CC[C@H]3[C@@H]4CC[C@H]([C@@](C)(O)c5ccccn5)[C@@]4(C)CC[C@@H]32)C1 | 16 µg/mL (≈ 31.4 µM) | 8 µg/mL (≈ 15.7 µM) | 16 µg/mL (≈ 31.4 µM) | 16 µg/mL (≈ 31.4 µM) | 8 µg/mL (≈ 15.7 µM) | 32 µg/mL (≈ 62.8 µM) | 8 µg/mL (≈ 15.7 µM) |
| C[C@]12CC[C@H]3[C@@H](CC=C4C[C@@H](O)CC[C@@]43C)[C@@H]1CC[C@@H]2[C@@](C)(O)c1nccs1 | 32 µg/mL (≈ 79.7 µM) | 8 µg/mL (≈ 19.9 µM) | 16 µg/mL (≈ 39.8 µM) | 8 µg/mL (≈ 19.9 µM) | 64 µg/mL (≈ 159 µM) | 32 µg/mL (≈ 79.7 µM) | 32 µg/mL (≈ 79.7 µM) |
| CC(=O)O[C@H]1CC[C@@]2(C)C(=CC[C@H]3[C@@H]4CC[C@H]([C@@](C)(O)c5nccs5)[C@@]4(C)CC[C@@H]32)C1 | 32 µg/mL (≈ 72.1 µM) | 32 µg/mL (≈ 72.1 µM) | > 64 µg/mL | 8 µg/mL (≈ 18 µM) | 64 µg/mL (≈ 144 µM) | 32 µg/mL (≈ 72.1 µM) | > 64 µg/mL |
| CC(=O)O[C@H]1CC[C@@]2(C)[C@@H](CC[C@@H]3[C@@H]2CC[C@@]2(C)[C@H]3CC[C@@H]2[C@@](C)(O)c2ccccn2)C1 | 16 µg/mL (≈ 36.4 µM) | 16 µg/mL (≈ 36.4 µM) | 16 µg/mL (≈ 36.4 µM) | 8 µg/mL (≈ 18.2 µM) | > 64 µg/mL | 64 µg/mL (≈ 146 µM) | 64 µg/mL (≈ 146 µM) |
| C[C@]12CC[C@H]3[C@@H](CC=C4C[C@@H](O)CC[C@@]43C)[C@@H]1CC[C@@H]2[C@@](C)(O)c1ccccn1 | 32 µg/mL (≈ 80.9 µM) | 8 µg/mL (≈ 20.2 µM) | > 64 µg/mL | 16 µg/mL (≈ 40.4 µM) | 16 µg/mL (≈ 40.4 µM) | 64 µg/mL (≈ 162 µM) | 32 µg/mL (≈ 80.9 µM) |
| CC(C)(C)[Si](C)(C)O[C@H]1CC[C@@]2(C)[C@@H](CC[C@@H]3[C@@H]2CC[C@@]2(C)[C@H]3CC[C@@H]2[C@@](C)(O)c2ccccn2)C1 | 64 µg/mL (≈ 125 µM) | 16 µg/mL (≈ 31.3 µM) | 32 µg/mL (≈ 62.5 µM) | 8 µg/mL (≈ 15.6 µM) | 32 µg/mL (≈ 62.5 µM) | 16 µg/mL (≈ 31.3 µM) | > 64 µg/mL |
| CC(=O)O[C@H]1CC[C@@]2(C)C(=CC[C@H]3[C@@H]4CC[C@H]([C@@](C)(O)c5ccccn5)[C@@]4(C)CC[C@@H]32)C1 | 32 µg/mL (≈ 73.1 µM) | 32 µg/mL (≈ 73.1 µM) | > 64 µg/mL | 8 µg/mL (≈ 18.3 µM) | 64 µg/mL (≈ 146 µM) | > 64 µg/mL | 16 µg/mL (≈ 36.6 µM) |
| OC(Cn1cncn1)(Cn1cncn1)c1ccc(F)cc1F [FLUCONAZOLE] | 32 µg/mL (≈ 104 µM) |  | 32 µg/mL (≈ 104 µM) |  | 8 µg/mL (≈ 26.1 µM) | 32 µg/mL (≈ 104 µM) | 64 µg/mL (≈ 209 µM) |
| CC(C)(C)[Si](C)(C)O[C@H]1CC[C@@]2(C)C(=CC[C@H]3[C@@H]4CC[C@H]([C@@](C)(O)c5nccs5)[C@@]4(C)CC[C@@H]32)C1 | > 64 µg/mL | 16 µg/mL (≈ 31 µM) | 16 µg/mL (≈ 31 µM) | 8 µg/mL (≈ 15.5 µM) | > 64 µg/mL | > 64 µg/mL | > 64 µg/mL |
| C[C@]12CC[C@H](O)C[C@@H]1CC[C@@H]1[C@@H]2CC[C@@]2(C)[C@H]1CC[C@@H]2[C@@](C)(O)c1nccs1 | > 64 µg/mL | 32 µg/mL (≈ 79.3 µM) | 64 µg/mL (≈ 159 µM) | 16 µg/mL (≈ 39.6 µM) | > 64 µg/mL | 32 µg/mL (≈ 79.3 µM) | > 64 µg/mL |
| CC[C@H]1OC(=O)[C@H](C)[C@@H](O[C@H]2C[C@@](C)(OC)[C@@H](O)[C@H](C)O2)[C@H](C)[C@@H](O[C@@H]2O[C@H](C)C[C@H](N(C)C)[C@H]2O)[C@](C)(O)C[C@@H](C)C(=O)[C@H](C)[C@@H](O)[C@]1(C)O [ERYTHROMYCIN] |  | 32 µg/mL (≈ 43.6 µM) |  | > 64 µg/mL |  |  |  |
| CC(=O)[C@H]1[C@H](c2ccccn2)C[C@H]2[C@@H]3CC=C4C[C@@H](OS(C)(C)C(C)(C)C)CC[C@]4(C)[C@H]3CC[C@@]21C | 64 µg/mL (≈ 125 µM) | 16 µg/mL (≈ 31.3 µM) | 32 µg/mL (≈ 62.5 µM) | 16 µg/mL (≈ 31.3 µM) | 64 µg/mL (≈ 125 µM) | > 64 µg/mL | 8 µg/mL (≈ 15.6 µM) |
| CC(=O)O[C@H]1CC[C@@]2(C)C(=CC[C@H]3[C@@H]4C[C@@H](c5ccccn5)[C@H](C(C)=O)[C@@]4(C)CC[C@@H]32)C1 | 64 µg/mL (≈ 147 µM) | 16 µg/mL (≈ 36.7 µM) | > 64 µg/mL | 16 µg/mL (≈ 36.7 µM) | 32 µg/mL (≈ 73.5 µM) | 32 µg/mL (≈ 73.5 µM) | > 64 µg/mL |
| C[C@]12CC[C@H](O)C[C@@H]1CC[C@@H]1[C@@H]2CC[C@@]2(C)[C@H]1CC[C@@H]2[C@@](C)(O)c1ccccn1 | 64 µg/mL (≈ 161 µM) | 8 µg/mL (≈ 20.1 µM) | 32 µg/mL (≈ 80.5 µM) | 8 µg/mL (≈ 20.1 µM) | > 64 µg/mL | 64 µg/mL (≈ 161 µM) | 32 µg/mL (≈ 80.5 µM) |
| CC(=O)O[C@H]1CC[C@@]2(C)[C@@H](CC[C@@H]3[C@@H]2CC[C@@]2(C)[C@H]3CC[C@@H]2[C@@](C)(O)c2nccs2)C1 | 16 µg/mL (≈ 35.9 µM) | 16 µg/mL (≈ 35.9 µM) | 8 µg/mL (≈ 18 µM) | 16 µg/mL (≈ 35.9 µM) | 16 µg/mL (≈ 35.9 µM) | 64 µg/mL (≈ 144 µM) | > 64 µg/mL |
| CN(C)[C@@H]1C(O)=C(C(N)=O)C(=O)[C@@]2(O)C(O)=C3C(=O)c4c(O)cccc4[C@@](C)(O)[C@H]3C[C@@H]12 [TETRACYCLINE] |  | 16 µg/mL (≈ 36 µM) |  | 8 µg/mL (≈ 18 µM) |  |  |  |
| CC(=O)[C@H]1[C@H](c2ccccn2)C[C@H]2[C@@H]3CC=C4C[C@@H](O)CC[C@]4(C)[C@H]3CC[C@@]21C | 32 µg/mL (≈ 81.3 µM) | 8 µg/mL (≈ 20.3 µM) | 32 µg/mL (≈ 81.3 µM) | 16 µg/mL (≈ 40.7 µM) | 64 µg/mL (≈ 163 µM) | > 64 µg/mL | 16 µg/mL (≈ 40.7 µM) |
| C[C@@H]1[C@H](O)[C@@H](C)/C=C/C=C/C=C/C=C/C=C/C=C/C=C/[C@H](O[C@@H]2O[C@H](C)[C@@H](O)[C@H](N)[C@@H]2O)C[C@@H]2O[C@](O)(C[C@@H](O)C[C@@H](O)[C@H](O)CC[C@@H](O)C[C@@H](O)CC(=O)O[C@H]1C)C[C@H](O)[C@H]2C(=O)O [AMPHOTERICIN B] | 16 µg/mL (≈ 17.3 µM) |  | 2 µg/mL (≈ 2.16 µM) |  | 16 µg/mL (≈ 17.3 µM) | 16 µg/mL (≈ 17.3 µM) | 16 µg/mL (≈ 17.3 µM) |
| CC(C)(C)[Si](C)(C)O[C@H]1CC[C@@]2(C)[C@@H](CC[C@@H]3[C@@H]2CC[C@@]2(C)[C@H]3CC[C@@H]2[C@@](C)(O)c2nccs2)C1 | 32 µg/mL (≈ 61.8 µM) | 16 µg/mL (≈ 30.9 µM) | > 64 µg/mL | 16 µg/mL (≈ 30.9 µM) | 64 µg/mL (≈ 124 µM) | > 64 µg/mL | 64 µg/mL (≈ 124 µM) |
